Laboratory results taken from patent US9737516B2, “Bicyclic heterocycles as bet protein inhibitors” (Incyte Corporation, priority 2013, dated 2017).

What was measured:
[1] = tested on: C-myc in KMS.12.BM cells; assay: KMS.12.BM C-myc ELISA assay; format: cell-based; conditions: Homo sapiens, 2 hours
Procedure: KMS.12.BM cell line (human myeloma) was purchased from JCRB (Osaka, Japan) and maintained in RPMI with 10% FBS culture medium. To measure the C-myc inhibitory activity of the compounds, the KMS.12.BM cells are plated in the RPMI culture medium at 75000 cells/well/per 200 μL into a 96-well flat bottom polystyrene tissue culture plate (Corning through VWR, N.J.), in the presence or absence of a concentration range of test compounds. After 2 hours, cell are pelleted and lysed with Cell Extraction Buffer (BioSource, Carlsbad, Calif.) in the presence of protease inhibitors (Life Technologies, Grand Island, N.Y. and Sigma, St Louis, Mo.). Clarified lyses are tested in a C-myc commercial ELISA (Life Technologies, Grand Island, N.Y.). Compound inhibition is determined relative to cells cultured with no drug and the IC50 is reported as the compound concentration required for 50% C-myc inhibition. IC50 data for the Examples is presented in Table 3 as determined by Assay C1.

[2] = target: BRD4-BD2 (Homo sapiens (Human), UniProt O60885); assay: BRD4 AlphaScreen assay (BRD4-BD2); format: binding; conditions: H4Ac4 peptide, 20 nM BRD4-BD2, read-out: BRD4 BD-2 enzyme IC50
Procedure: (§1) BRD4-BD1 and BRD4-BD2 assays were conducted in white 384-well polystyrene plate in a final volume of 20 μL for BD1 and 40 μL for BD2. Inhibitors were first serially diluted in DMSO and added to the plate wells before the addition of other reaction components. The final concentration of DMSO in the assay was 1.25% (BD1) and 0.83% (BD2). The assays were carried out at room temperature for 75 min. in the assay buffer (50 mM HEPES, pH 7.4, 100 mM NaCl, 0.05% CHAPS, 0.01% BSA), containing 50 nM Biotin-labeled tetra-acetylated histone H4 peptide (H4Ac4), 3.8 nM (BRD4-BD1, BPS Bioscience #31040) or 20 nM (BRD4-BD2, BPS Bioscience #31041). The reaction followed by the addition of 20 μL of assay buffer supplemented with Streptavidin donor beads (PerkinElmer 6760002) and GSH Acceptor beads (PerkinElmer-AL109C) at 4 µg/mL under reduced light. After plate sealing, the plate was incubated in the dark at room temperature for 75 min. before reading on a PHERAstar FS plate reader (BMG Labtech). IC50 determination was performed by fitting the curve of percent control activity versus the log of the inhibitor concentration using the GraphPad Prism 5.0 software. IC50 data for the Examples is presented in Table 1 as determined by Assay A1.

[3] = target: BRD4-BD1 (Homo sapiens (Human), UniProt O60885); assay: BRD4 AlphaScreen assay (BRD4-BD1); format: binding; conditions: H4Ac4 peptide, 3.8 nM BRD4-BD1, read-out: BRD4 BD-1 enzyme IC50
Procedure: as §1

[4] = tested on: KMS.12.BM cells; assay: KMS.12.BM cell viability assay (ATP quantitation, Cell Titer-GLO); format: cell-based; conditions: Homo sapiens, 72 h, 3 days, concentration required for 50% cell death, read-out: KMS cellular IC50
Procedure: KMS.12.BM cell line (human myeloma) was purchased from JCRB (Osaka, Japan) and maintained in RPMI with 10% FBS culture medium. To measure the cytotoxic activity of the compounds through ATP quantitation, the KMS.12.BM cells are plated in the RPMI culture medium at 5000 cells/well/per 100 μL into a 96-well polystyrene clear black tissue culture plate (Greiner-bio-one through VWR, NJ), in the presence or absence of a concentration range of test compounds. After 3 days, […] Cell Titer-GLO Luminescent (Promega, Madison, Wis.) cell culture agent is added to each well for 10 minutes at room temperature to stabilize the luminescent signal. This determines the number of viable cells in culture based on quantitation of the ATP present, which signals the presence of metabolically active cells. Luminescence is measured with the Top Count 384 (Packard Bioscience through Perkin Elmer, Boston, Mass.). Compound inhibition is determined relative to cells cultured with no drug and the IC50 is reported as the compound concentration required for 50% cell death. IC50 data for the Examples is presented in Table 2 as determined by Assay B1.

IC50 [1] | IC50 [2] | IC50 [3] | SMILES | IC50 [4]
≤ 1000 nM | ≤ 100 nM | ≤ 100 nM | Cn1cc(-c2cc3[nH]nnc3cc2Oc2ccc(F)cc2F)c2cc[nH]c2c1=O [Example 8, 4-(5-(2,4-difluorophenoxy)-1H-benzo[d][1,2,3]triazol-6-yl)-6-methyl-1H-pyrrolo[2,3-c]pyridin-7(6H)-one] | ≤ 1000 nM
≤ 1000 nM | ≤ 100 nM | ≤ 100 nM | Cn1cc(-c2cc3c(cc2OCC2CCC2)ncn3C)c2cc[nH]c2c1=O [Example 14, 4-[5-(Cyclobutylmethoxy)-1-methyl-1H-benzimidazol-6-yl]-6-methyl-1,6-dihydro-7H-pyrrolo[2,3-c]pyridin-7-one] | ≤ 1000 nM
